Results as given in article PMC8620685, “Effect of Selected Silyl Groups on the Anticancer Activity of 3,4-Dibromo-5-Hydroxy-Furan-2(5H)-One Derivatives” (Pharmaceuticals, 2021).
Read-outs that look alike come from different tables or passages of the source.

Key:
HCT 116 wt = test: MTT assay, HCT 116 wt; assay type: cell-based, human
Experimental: (§1) The in vitro antitumor activities of the MBA and its derivatives (Table 2) were assayed against a panel of human cancer cell lines (HCT116, HCT-116 ^−/−p53, HT-29, MCF-7, SJSA-1, U2OS, HepG2 and Hep3B) using the MTT assay. As a reference drug we used 5-fluorouracil (5-FU). […] On the basis of in vitro antiproliferative activities, compounds 3b and 3c were selected for further mechanistic studies in the HCT-116 cell line.
(§2) Human cells lines: colon cancer (HCT-116 wt, HT-29), non-small lung carcinoma (A549), and bronchial epithelial cells (BEAS-2B) were obtained from American Type Culture Collection (ATCC, Manassas, VA, USA). Isogenic cell line HCT 116 p53^−/− (deleted both p53 alleles) were a gift from Dr. Bert Vogelstein. Other cell lines, namely MCF-7, SJSA-1, U2OS, HepG2, and Hep3B were received from the collection stored at Centre of Biotechnology of Silesian University of Technology. All cells were grown in DMEM with a high glucose medium (Sigma-Aldrich, Taufkirchen, Germany) supplemented with 10% (v/v) inactivated fetal bovine serum (FBS) (EURx, Gdańsk, Poland) and 1% antibiotics (10,000 μg/mL of streptomycin and 10,000 units/ml of penicillin) (Sigma-Aldrich, Taufkirchen, Germany) at 37 °C in humidified 5% CO2. The maximum concentration of DMSO in the culture media was 0.4%.
(§3) 5 × 10^3 cells per well for the MCF-7 cell line and 2.5 × 10^3 cells per well for the other cell lines were seeded in 96-well plates to adhere for 24 h. Afterward, the cells were treated with tested compounds. After 72 hours of incubation, 50 μL 0.5 mg/ml solution of MTT (3-(4,5-dimethylthiazol-2-yl)-2,5-diphenyl-2H-tetrazolium bromide) were added to each well and the plates were incubated for 3 h at 37 °C. Next, the MTT solution was removed from the plates and formed formazan crystals were dissolved in 2-propanol (Avantor Performance Materials, Gliwice, Poland) containing 0.04 M hydrochloric acid (Avantor Performance Materials, Gliwice, Poland). The absorbance was measured at 570 nm wavelength using a multiwall plate reader (BioTek, Winooski, VT, USA). The experiment was performed at a minimum of 3 independent replicates. Cell viability was set as a percentage versus vehicle control. IC50 was defined as a concentration of a drug that decreased cell viability by 50% relative to the untreated control.

HCT 116 p53−/− = test: MTT assay, HCT 116 p53−/−; assay type: cell-based; conditions: Homo sapiens, read-out: IC50 (cytotoxicity), HCT 116 p53−/−
Experimental: as §1, §2, §3

HT-29 = test: MTT assay, HT-29; assay type: cell-based; conditions: Homo sapiens, read-out: IC50 (cytotoxicity), HT-29
Experimental: as §1, §2, §3

MCF-7 = test: MTT assay, MCF-7; assay type: cell-based, human
Experimental: as §1, §2, §3

U2OS = test: MTT assay, U2OS; assay type: cell-based; conditions: Homo sapiens, MTT, 72 h incubation, read-out: IC50 (cytotoxicity), U2OS
Experimental: as §1, §2, §3

SJSA-1 = test: MTT assay, SJSA-1; assay type: cell-based; conditions: Homo sapiens, SJSA-1; MTT, 72 h incubation; read-out: IC50 (cytotoxicity), SJSA-1
Experimental: as §1, §2, §3

HepG2 = test: MTT assay, HepG2; assay type: cell-based; conditions: Homo sapiens, HepG2; MTT, 72 h incubation; read-out: IC50 (cytotoxicity), HepG2
Experimental: as §1, §2
as §3, with “The experiment was performed at a minimum of 3 independent replicates. Cell viability was set as a percentage versus vehicle control. IC50 was defined as a concentration of a drug that decreased cell viability by 50% relative to the untreated control.” left out

Hep3B = test: MTT assay, Hep3B; assay type: cell-based; conditions: Homo sapiens, MTT, 72 h incubation, read-out: IC50 (cytotoxicity), Hep3B
Experimental: as §1, §2, §3

A549 = test: MTT assay, NSCLC cell line A549; assay type: cell-based, human; conditions: for IC50: Homo sapiens, A549, MTT, 72 h incubation, read-out: IC50 (cytotoxicity), A549; for SI: selectivity, A549 versus BEAS-2B
Experimental: (§4) One of the major drawbacks of currently used anticancer drugs is their low selectivity, which often leads to undesired side effects that may be harmful to patients. Overcoming this challenging task requires special attention at the pre-clinical development level. To check whether silyl group incorporation may affect the selectivity of compounds towards cancer cells, MBA and all its new silyl derivatives were tested for their efficacy on noncancerous BEAS-2B and cancerous A549 cells line. […] In contrast, compounds 3a and 3d were more cytotoxic to A549 cells with SI values 6.05 and 1.72, respectively. Strikingly, those two compounds have similar cLogP values 3.08 and 3.22, respectively.
as §2, §3

[1] = MTT assay, normal bronchial epithelium cell line BEAS-2B; assay type: cell-based; conditions: human, BEAS-2B cells (noncancerous bronchial epithelial cells); MTT, 72 h incubation; noncancerous cells; read-out: IC50 (cytotoxicity), BEAS-2B
Experimental: as §4, §2, §3

HCT-116 cells = test: Annexin V-FITC/PI apoptosis assay; assay type: cell-based, human; conditions: HCT-116, statement in discussion
Experimental: To verify this thesis, we utilized annexin-V/PI double staining of cells, which were subsequently subjected to flow cytometric analysis.
The HCT 116 cells were seeded in 6-well plate (Nunc, ThermoFisher, Waltham, MA, USA) at a density of 5 × 10^4 cells/well and allowed to attach. After 24 h the medium was replaced with tested compounds. The cells were then incubated for 24 h at 37 °C. Next, both floating and adherent cells were harvested and centrifuged at 600× g. The cells were washed with PBS (phosphate buffered saline) (Sigma-Aldrich, Taufkirchen, Germany) and we followed instructions from the manufacturer of the Annexin V-FITC Apoptosis Detection Kit (Biotool, Jupiter, FL, USA). Fluorescence was measured using a Becton Dickinson FACS Aria III sorter (BD Company, San Diego, CA, USA). Experiments were repeated at least twice. Data were analyzed using FCE Express 7 Software (DeNovo Software, Pasadena, CA, USA).

[2] = Homo sapiens, HCT-116, 72 h, read-out: IC50 (cytotoxicity), HCT 116 wt, MTT, 72 h incubation
[3] = Homo sapiens, MCF7, 72 h, read-out: IC50 (cytotoxicity), MCF-7, MTT, 72 h incubation

SMILES | IC50 (HCT 116 wt; Homo sapiens, HCT-116, 72 h, MTT, 72 h incubation, read-out: IC50 (cytotoxicity), HCT 116 wt) | IC50 (HCT 116 p53−/−; HCT-116, MTT, 72 h incubation) | IC50 (HT-29; HT-29, MTT, 72 h incubation) | IC50 (MCF-7; Homo sapiens, MCF7, 72 h, MTT, 72 h incubation, read-out: IC50 (cytotoxicity), MCF-7) | IC50 (U2OS) | IC50 (HCT 116 wt; [2]) | IC50 (HCT 116 wt; human, 72 h) | IC50 (HCT 116 p53−/−; HCT-116, 72 h) | IC50 (HT-29; HT-29, 72 h) | IC50 (MCF-7; [3]) | IC50 (SJSA-1) | IC50 (HepG2) | IC50 (Hep3B) | IC50 (A549) | SI (A549) | IC50 at 72 h [1] | induction of apoptosis / cell death in HCT-116 (HCT-116 cells) | IC50 (MCF-7; human, 72 h)
O=c1[nH]cc(F)c(=O)[nH]1 [5FU, 5-fluorouracil, reference compound] | 6.3 ± 1 µM | 13.4 ± 1.5 µM | 32.8 ± 4.7 µM | 29.7 ± 1.4 µM | 89.8 ± 2.1 µM | – | – | – | – | – | – | – | – | – | – | – | – | –
CC(C)(C)[Si](C)(C)OC1OC(=O)C(Br)=C1Br (stereo not drawn) [Compound 3a, 3,4-Dibromo-5-(tert-butyldimethylsilyloxy)-furan-2(5H)-one] | – | – | – | – | – | 1.4 µM | 1.3 ± 0.12 µM | 21.4 ± 3.4 µM | 88.7 ± 8.2 µM | 186 ± 14.2 µM | 196 ± 5.4 µM | 135 ± 6 µM | 135 ± 6.1 µM | 23.4 ± 6.6 µM | 6.05 | 142 ± 23.1 µM | failed to induce apoptosis | –
CC[Si](CC)(CC)OC1OC(=O)C(Br)=C1Br (stereo not drawn) [Compound 3d, 3,4-Dibromo-5-(trietylsilyloxy)-furan-2(5H)-one] | – | – | – | – | – | 1.6 ± 0.4 µM | – | 4.4 ± 0.4 µM | – | 89 µM | – | – | – | 4.7 ± 0.1 µM | 1.72 | 8.1 ± 1.2 µM | – | 89.2 ± 6 µM
